For 37 compounds, IC50 results are on record in BindingDB's records for doi:10.7270/Q2SX6BMJ (Burnham Center for Chemical Genomics, 2008).

SMILES strings stand for the structures.

The assay concerns the target T1, Alkaline phosphatase, tissue-nonspecific isozyme (Homo sapiens, UniProt P05186).
T1 sequence (P05186 whole entry): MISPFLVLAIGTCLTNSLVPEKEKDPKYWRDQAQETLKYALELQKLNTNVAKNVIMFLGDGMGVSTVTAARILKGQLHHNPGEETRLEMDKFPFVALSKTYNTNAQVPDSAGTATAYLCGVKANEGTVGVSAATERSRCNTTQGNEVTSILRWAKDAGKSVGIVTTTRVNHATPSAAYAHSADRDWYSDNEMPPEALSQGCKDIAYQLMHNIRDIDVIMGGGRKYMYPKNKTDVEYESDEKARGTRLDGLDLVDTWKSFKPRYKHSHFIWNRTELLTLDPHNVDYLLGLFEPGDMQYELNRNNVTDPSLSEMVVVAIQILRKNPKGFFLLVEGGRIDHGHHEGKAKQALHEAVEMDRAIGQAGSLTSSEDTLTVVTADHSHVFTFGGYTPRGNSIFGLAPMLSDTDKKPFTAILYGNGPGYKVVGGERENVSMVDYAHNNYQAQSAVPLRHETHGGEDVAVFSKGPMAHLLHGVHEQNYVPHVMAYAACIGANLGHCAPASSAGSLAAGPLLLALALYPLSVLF
Briefly: human TNAP enzyme inhibitors, biochemical, luminescent (AID 518).
As usually defined, the IC50 is the concentration that inhibits the measured activity by half. Read a low IC50 as greater potency. In turn, `COc1ccc(-c2[nH]nc3oc(=O)cc(C)c23)cc1` yielded an IC50 of 1.35 µM.
For `COC(=O)c1cc(-c2ccc(Br)cc2)n[nH]1` the value was 1.14 µM; for `c1ccc(-c2[nH]nc3ccccc23)cc1`, 3.72 µM.
Compound `CC(=N)C(C#N)C(=O)CSc1nnc(-c2ccccc2Br)[nH]1` (configuration not stated) gave an IC50 of 1.73 µM.
For `O=C(Nc1nnc(C2CCCCC2)[nH]1)C1CCCCC1` the value was above 100 µM.
For `CC1(C)CC(=O)c2c(n[nH]c2Cc2ccccc2)C1` the value was 1.83 µM.
The figure for `O=C(O)c1cc(-c2ccc(Cl)cc2)n[nH]1` is 2.67 µM.
In turn, `Brc1ccc(-c2nnc3sc(CNCc4ccc5c(c4)OCO5)cn23)cc1` [1-(1,3-benzodioxol-5-yl)-N-[[3-(4-bromophenyl)-6-thiazolo[2,3-c][1,2,4]triazolyl]methyl]methanamine] displayed an IC50 above 100 µM.
The figure for `O=C(Cc1ccc(-n2cccc2)cc1)N1CCN(c2ccccc2F)CC1` [1-(2-fluorophenyl)-4-{[4-(1H-pyrrol-1-yl)phenyl]acetyl}piperazine] is above 100 µM; for `Cc1ccc2c(c1)-c1c(cnn1CC(=O)N1CCCN(Cc3ccccc3F)C1)CO2` [1-[3-(2-fluorobenzyl)hexahydropyrimidin-1-yl]-2-(8-methyl-4H-chromeno[4,3-c]pyrazol-1-yl)ethanone] it is above 100 µM; for `O=c1c(=Cc2ccco2)sc2nc(-c3ccccc3Br)nn12` [2-(2-bromophenyl)-5-(2-furanylmethylidene)-6-thiazolo[3,2-b][1,2,4]triazolone] it is above 100 µM.
For `Cc1ccc(-n2c(Cc3cccn3C)nnc2SCC(=O)Nc2nnc(C)s2)cc1` [2-({4-(4-methylphenyl)-5-[(1-methyl-1H-pyrrol-2-yl)methyl]-4H-1,2,4-triazol-3-yl}thio)-N-(5-methyl-1,3,4-thiadiazol-2-yl)acetamide] the value was above 100 µM; for `CCc1ccc(OCc2nc(-c3ccccn3)no2)c(Br)c1` [2-{5-[(2-bromo-4-ethylphenoxy)methyl]-1,2,4-oxadiazol-3-yl}pyridine], above 100 µM; for `CCOC(=O)N1CCN(C(=O)c2ccc(CS(=O)(=O)c3ccccc3OC)o2)CC1` [4-[5-[(2-methoxyphenyl)sulfonylmethyl]-2-furoyl]piperazine-1-carboxylic acid ethyl ester], above 100 µM.
The figure for `Cc1ccsc1C=c1sc2ncnn2c1=O` [5-[(3-methyl-2-thienyl)methylene][1,3]thiazolo[3,2-b][1,2,4]triazol-6(5H)-one] is 11.7 µM.
Compound `COc1cc(CSc2nnc[nH]2)c(OC)cc1CSc1nnc[nH]1` [5-[[2,5-dimethoxy-4-[(1H-1,2,4-triazol-5-ylthio)methyl]phenyl]methylthio]-1H-1,2,4-triazole] returned an IC50 of 1.66 µM.
For `COCc1n[nH]c2c1C(c1cc(OC)c(O)c(OC)c1)C(C#N)C(=N)O2` (configuration not stated) [6-azanyl-4-(3,5-dimethoxy-4-oxidanyl-phenyl)-3-(methoxymethyl)-2,4-dihydropyrano[2,3-c]pyrazole-5-carbonitrile] the value was 5.25 µM; for `COc1ccc2c(c1)CCc1c-2n[nH]c1C(=O)O` [7-methoxy-4,5-dihydro-2H-benzo[g]indazole-3-carboxylic acid], 2.62 µM; for `O=C(C1CCN(S(=O)(=O)N2CCC3(CC2)OCCO3)CC1)N1CCN(Cc2ccccc2)CC1` [(4-benzylpiperazin-1-yl)-[1-(1,4-dioxa-8-azaspiro[4.5]decan-8-ylsulfonyl)piperidin-4-yl]methanone], above 100 µM.
For `O=C(Cn1c(-c2ccccc2)noc1=O)Nc1ccc(N2CCCCCC2)cc1` [MLS000027331] the value was above 100 µM; for `Cn1ncc2c1ncn1nc(CCc3ccccc3)nc21` [MLS000040759], 15.8 µM.
For `COc1ccc(CNC(=O)C(C)NC(=O)c2cc3ccccc3o2)cc1` (configuration not stated) [MLS000047147] the value was above 100 µM; for `c1ccc(-n2ncc3c2ncn2cnnc32)cc1` [MLS000048783], above 100 µM.
`Cc1ccc(-n2ncc3c2ncn2c(C)nnc32)cc1C` [MLS000082333] yielded an IC50 of 7.92 µM.
The figure for `CCCc1nc2c3cnn(-c4cccc(Cl)c4)c3ncn2n1` [MLS000083263] is above 100 µM; for `OCc1nnn(-c2cccc(C(F)(F)F)c2)c1CO` [MLS000090420] it is above 100 µM; for `CCN(CC)S(=O)(=O)c1ccc2c(c1)c(=O)c(C(=O)N1CCOCC1)cn2C` [MLS000092367] it is above 100 µM.
In turn, `Oc1c2c(c(O)n1-c1nnc(Cc3ccccc3)[nH]1)CC=CC2` [MLS000100008] showed an IC50 of 0.33 µM.
The figure for `Cn1c(NC(=O)CC(C)(C)C)cc(=O)n(C)c1=O` [MLS000103608] is above 100 µM; for `CCCSc1nnc(NC(C)=O)[nH]1` [MLS000114796] it is 0.82 µM; for `Cc1cc(NC(=O)c2noc3c2CCc2ccccc2-3)n(-c2ccccc2)n1` [MLS000116423] it is above 100 µM.
The figure for `CCCCNC(=O)c1ccc2nc(-c3ccco3)c(-c3ccco3)nc2c1` [MLS000119995] is above 100 µM; for `Cc1cc(=O)oc2n[nH]c(-c3ccccc3)c12` [MLS-0013971.0001] it is 1.23 µM.
For `CC1(C)Cc2c(sc3nc4n(c(=N)c23)CCCCC4)CO1` [SMR000039131] the value was 9.5 µM.
Regarding `COC(=O)c1cc(-c2c[nH]c3ccccc23)[nH]n1` [SMR000079439], the 50% inhibitory concentration (IC50) stood at 1.17 µM.
As for `CCOC(=O)c1sc(NC(=O)CSc2nnc(-c3ccccc3)[nH]2)c(C#N)c1C` [ethyl 4-cyano-3-methyl-5-[[2-[(5-phenyl-1H-1,2,4-triazol-3-yl)sulfanyl]acetyl]amino]thiophene-2-carboxylate], inhibition was half-maximal at 5.39 µM (IC50).
The figure for `COC(=O)c1cc(-c2ccccc2)n[nH]1` [methyl 3-phenyl-1H-pyrazole-5-carboxylate] is 1.24 µM.
